In patent US20250144050A1, “AMINOTHIOL-CONJUGATES, COMPOSITIONS, AND METHODS OF USE THEREOF” (THE BURLINGTON HC RESEARCH GROUP, INC., priority 2021, published 2025):

Key:
DU-145 = test: Trypan Blue cell count after 48 hour exposure; assay type: cell-based, human; details: read-out: Average Growth Inhibitory Dose 50% [EC50], Prostate CA (DU-145)
Experimental: (§1) To evaluate the anticancer activity of 4-arm star polyethylene glycol conjugated to WR-1065 (4SP65), the anticancer efficacy of 4SP65 was determined in some of the same cell lines used by NIH/NCI, and the methodology used was the same as is used by the NCI to evaluate chemotherapeutic agents currently in use (O'Connor et al., “Characterization of the p53 Tumor Suppressor Pathway in Cell Lines of the National Cancer Institute Anticancer Drug Screen and Correlations With the Growth-Inhibitory Potency of 123 Anticancer Agents,” Cancer Res. 57 (19): 4285-300 (1997), which is hereby incorporated by reference in its entirety). Testing of 6 cancer types was completed: (i) breast cancer (MDA-MB-231 cells), (ii) lung cancer (A549), (iii) prostate cancer cell line (LNCaP), (iv) myelogenous leukemia (HL60 cells), (v) ovarian cancer (SK-OV-3), and (vi) prostate cancer (DU-145).
(§2) Each cell line was grown in medium as recommended by the ATCC or as presented in the literature for that cell line. All cells were cultured in a water jacket incubator at 36-37° C. and in the presence of 5% CO2. To ensure optimal growth and viability, all cells were grown on plates coated with FNC (In Vitrogen). Cells were refed with growth medium twice weekly until they had reached 60 to 70% confluence. At this point, the medium was replaced with growth medium supplemented with 4SP65 at doses ranging from 0 to up to 300 micromolar. Cells were allowed to grow in the presence of this supplemented medium for 48 hours, and then they were removed by trypsinization, stained with Trypan Blue and counted in a hemocytometer. Three to four replicates for each dose group per experiment were performed. The percentage cell death was determined by comparing the average number of surviving cells exposed to 4SP65 versus the average number of surviving sham exposed cells.

A549 = test: Trypan Blue cell count after 48 hour exposure; assay type: cell-based, human; details: read-out: Average Growth Inhibitory Dose 50% [EC50], Lung CA (A549)
Experimental: as §1, §2

MDA-MB-231 cells = test: Trypan Blue cell count after 48 hour exposure; assay type: cell-based, human; details: read-out: Average Growth Inhibitory Dose 50% [EC50], Breast CA (MDA-MB-231)
Experimental: as §1, §2

LNCaP = test: Trypan Blue cell count after 48 hour exposure; assay type: cell-based, human; details: read-out: Average Growth Inhibitory Dose 50% [EC50], Prostate cancer cell line (LNCaP)
Experimental: as §1, §2

HL60 cells = test: Trypan Blue cell count after 48 hour exposure; assay type: cell-based, human; details: read-out: Average Growth Inhibitory Dose 50% [EC50], Myelogenous Leukemia (HL60)
Experimental: as §1, §2

SK-OV-3 = test: Trypan Blue cell count after 48 hour exposure; assay type: cell-based, human; details: read-out: Average Growth Inhibitory Dose 50% [EC50], Ovarian CA (SK-OV-3)
Experimental: as §1, §2

H1437 NSCLC cells = test: Alamar Blue (resazurin) cellular reducing capacity; assay type: cell-based, human; details: until cell numbers reduced to approximately 50% of controls
Description: The aminothiol-conjugates of the present disclosure (e.g., 4SP65 and 1LP65) are disulfides that require reduction by glutathione or thioredoxin for the two constituent molecules (WR1065 and PEG-SH scaffold) to be released. […] After an aminothiol-conjugate of the present disclosure (e.g., 4SP65 and 1LP65) enters the cytoplasm, either glutathione or thioredoxin reduces the BRG disulfide bond (Rxn #1) to yield reduced WR1065 and PEG-SH scaffold. In normal cells with a reducing cytosolic redox balance, evidence of formation of free radical intermediates during this reaction has not been reported, but formation of […] has been reported (Nagy, P., “Kinetics and Mechanisms of Thiol-Disulfide Exchange Covering Direct Substitution and Thiol Oxidation-Mediated Pathways,” Antioxid Redox Signal 18 (13): 1623-1641 (2013), which is hereby incorporated by reference in its entirety). Conversely, in cancer cells where the cellular environment is shifted towards oxidizing conditions, there is evidence that reactive species such as thiyl free radicals can be formed (Nagy, P., “Kinetics and Mechanisms of Thiol-Disulfide Exchange Covering Direct Substitution and Thiol Oxidation-Mediated Pathways,” Antioxid. Redox Signal 18 (13): 1623-1641 (2013), which is hereby incorporated by reference in its entirety), which can have adverse effects in neoplastic cells. […]

HCC38 cells = test: CyQUANT cell viability assay, 48-hour exposure; assay type: cell-based, human
Experimental: After drug treatments, fluorescence readings from 96-well plates were obtained using the CyQUANT dye and compared to standard curves for each cell line to determine cell viability. […] Trypan blue exclusion was used to estimate cell numbers in a few pilot experiments and was thereafter applied to confirm cell death.
A series of experiments was conducted to assess the relative efficacy of 4SP65, 1LP65, and amifostine as single agents in the same human cancer cell lines. First, the effectiveness of 4SP65 was tested against 15 cancer cell lines derived from seven tissues. […] The effectiveness of 0 to ≤500 μM amifostine was tested in sets of cancer cell lines reported to have either medium, high, or no expression of alkaline phosphatase.
Trans. R Soc. Lond. […] Using cell numbers based on fluorescence measurements and standard curves [time zero, (Tz), control growth, (C), and test growth in the presence of drug at five or more concentration levels (Ti)], the percentage growth was calculated at each drug concentration level. The percentage of growth inhibition was calculated as follows:
The LC50/99 was calculated using Equation 2=−50 and Eq. 2=−99, respectively. […] For NHMECs, the relationships between drug exposure levels and fluorescence units were used to define dose-response metrics. The selectivity index (SI) values for individual drug treatments were calculated as IC50 levels in NHMECs divided by the IC50 values in cancer cell lines.

[1] = system: HMESO-1 malignant mesothelioma cells; assay type: cell-based
Experimental: Trypan Blue exclusion was applied as a complementary confirmation probe for cell death.
Statistical comparisons of differences in individual dose-response metrics between individual/paired drug treatments and various cell lines were conducted using the Student's t-test, with P-values <0.05 considered significant.
Relative cell growth inhibition values for differing levels each drug alone and in combination were input into SynergyFinder to generated dose-response curves for each drug alone, to produce a dose-response matrix, to visualize the distribution of areas of differing degrees of synergism in a 2-dimension heatmap and 3-dimension volcano plot, and to calculate average and maximum synergy scores in selected human cancer cell lines. […] Synergy scores <10 means that the interaction between two drugs was likely to be antagonistic; scores from −10 to 10 means the interaction between two drugs was likely to be additive; and scores >10 means the interaction between two drugs was likely to be synergistic.

Substance: 4-star PEG-S-S-WR1065 [4SP65]
- EC50 (DU-145): 6.7 µM
- EC50 (A549): 15 µM
- EC50 (MDA-MB-231 cells): 4.5 µM
- EC50 (LNCaP): 9.5 µM
- EC50 (HL60 cells): 3 µM
- EC50 (SK-OV-3): 5 µM
- cellular reducing capacity relative to control cells (H1437 NSCLC cells): ~100%
- Relative potency compared to amifostine at IC50 (HCC38 cells; HCC38 cells): 67 fold
- selectivity index (HCC38 cells; IC50 of 76 in most sensitive NHMEC strain / IC50 in HCC38): > 19
- CC50 [1]: 7 ± 0.1 µM
- GI50 ([1]; HMESO-1, each drug alone, 48 h): 2 ± 0.3 µM
- IC50 ([1]; HMESO-1, each drug alone, 48 h): 4.7 ± 0.2 µM
- LC99 ([1]; HMESO-1, each drug alone, 48 h): 12.4 ± 0.1 µM
- TGI ([1]; HMESO-1, each drug alone, 48 h): 4.3 ± 0.2 µM
